# Measured values as given in PubChem BioAssay AID1963982 (Molecular Pharmacology Branch, DTP, NCI, 2024).
# System: 313798-341-R-J2-PDC spheroids, viability
# Assay: Anticancer human tumor 313798-341-R-J2-PDC patient-derived cervical squamous cell carcinoma cell line growth inhibition [PI3K]
# Conditions: spheroids with HUVEC and MSC; for IC50: curve of first compound; for viability, T/C: stronger effect = lower value
# Outline: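 Tumor cells grown as multi-cell spheroids with HUVEC endothelial cells and MSC fibroblast-like stroma were treated with targeted agents combined with inavolisib, alpelisib, duvelisib or copanlisib. Doses fell in half-log steps from near clinical Cmax, else from 10 microM. Viability was measured.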
# 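Further: spheroids exposed to compounds for seven days.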
# 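Wherever viability, T/C is given: 100% = DMSO vehicle control viability.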
compound,measurement,setting,value
CNC(=O)c1ccc(N2C(=S)N(c3ccc(C#N)c(C(F)(F)F)c3)C(=O)C2(C)C)cc1F + CC(Nc1ncnc2nc[nH]c12)c1cc2cccc(Cl)c2c(=O)n1-c1ccccc1,IC50,second compound 0.0316 µM,> 10 µM
same,IC50,second compound 0.1 µM,> 10 µM
same,IC50,second compound 0.316 µM,> 10 µM
same,IC50,second compound 1 µM,> 10 µM
same,IC50,second compound 3.16 µM,> 10 µM
same,IC50,second compound 10 µM,> 10 µM
same,"viability, T/C","second compound 0.0316 µM, first compound 0.0316 µM",104%
same,"viability, T/C","second compound 0.0316 µM, first compound 0.1 µM",110%
same,"viability, T/C","second compound 0.0316 µM, first compound 0.316 µM",100%
same,"viability, T/C","second compound 0.0316 µM, first compound 1 µM",92.4%
same,"viability, T/C","second compound 0.0316 µM, first compound 3.16 µM",121%
same,"viability, T/C","second compound 0.0316 µM, first compound 10 µM",98.8%
same,"viability, T/C","second compound 0.1 µM, first compound 0.0316 µM",102%
same,"viability, T/C","second compound 0.1 µM, first compound 0.1 µM",101%
same,"viability, T/C","second compound 0.1 µM, first compound 0.316 µM",112%
same,"viability, T/C","second compound 0.1 µM, first compound 1 µM",99.4%
same,"viability, T/C","second compound 0.1 µM, first compound 3.16 µM",106%
same,"viability, T/C","second compound 0.1 µM, first compound 10 µM",101%
same,"viability, T/C","second compound 0.316 µM, first compound 0.0316 µM",94.8%
same,"viability, T/C","second compound 0.316 µM, first compound 0.1 µM",98.3%
same,"viability, T/C","second compound 0.316 µM, first compound 0.316 µM",92.6%
same,"viability, T/C","second compound 0.316 µM, first compound 1 µM",98.8%
same,"viability, T/C","second compound 0.316 µM, first compound 3.16 µM",98.3%
same,"viability, T/C","second compound 0.316 µM, first compound 10 µM",96.5%
same,"viability, T/C","second compound 1 µM, first compound 0.0316 µM",95%
same,"viability, T/C","second compound 1 µM, first compound 0.1 µM",96.5%
same,"viability, T/C","second compound 1 µM, first compound 0.316 µM",97.8%
same,"viability, T/C","second compound 1 µM, first compound 1 µM",109%
same,"viability, T/C","second compound 1 µM, first compound 3.16 µM",100%
same,"viability, T/C","second compound 1 µM, first compound 10 µM",93.2%
same,"viability, T/C","second compound 3.16 µM, first compound 0.0316 µM",111%
same,"viability, T/C","second compound 3.16 µM, first compound 0.1 µM",101%
same,"viability, T/C","second compound 3.16 µM, first compound 0.316 µM",92.9%
same,"viability, T/C","second compound 3.16 µM, first compound 1 µM",93.9%
same,"viability, T/C","second compound 3.16 µM, first compound 3.16 µM",97.1%
same,"viability, T/C","second compound 3.16 µM, first compound 10 µM",84.8%
same,"viability, T/C","second compound 10 µM, first compound 0.0316 µM",82.8%
same,"viability, T/C","second compound 10 µM, first compound 0.1 µM",86.1%
same,"viability, T/C","second compound 10 µM, first compound 0.316 µM",85.5%
same,"viability, T/C","second compound 10 µM, first compound 1 µM",85.6%
same,"viability, T/C","second compound 10 µM, first compound 3.16 µM",88.4%
same,"viability, T/C","second compound 10 µM, first compound 10 µM",73.2%
Cn1cnc2c(F)c(Nc3ccc(Br)cc3Cl)c(C(=O)NOCCO)cc21 + CC(Nc1ncnc2nc[nH]c12)c1cc2cccc(Cl)c2c(=O)n1-c1ccccc1,IC50,second compound 0.0316 µM,> 3 µM
same,IC50,second compound 0.1 µM,> 3 µM
same,IC50,second compound 0.316 µM,> 3 µM
same,IC50,second compound 1 µM,> 3 µM
same,IC50,second compound 3.16 µM,> 3 µM
same,IC50,second compound 10 µM,> 3 µM
same,"viability, T/C","second compound 0.0316 µM, first compound 0.00949 µM",97.3%
same,"viability, T/C","second compound 0.0316 µM, first compound 0.03 µM",99%
same,"viability, T/C","second compound 0.0316 µM, first compound 0.0949 µM",92.1%
same,"viability, T/C","second compound 0.0316 µM, first compound 0.3 µM",91.4%
same,"viability, T/C","second compound 0.0316 µM, first compound 0.949 µM",89.2%
same,"viability, T/C","second compound 0.0316 µM, first compound 3 µM",77.9%
same,"viability, T/C","second compound 0.1 µM, first compound 0.00949 µM",85.7%
same,"viability, T/C","second compound 0.1 µM, first compound 0.03 µM",95.7%
same,"viability, T/C","second compound 0.1 µM, first compound 0.0949 µM",89%
same,"viability, T/C","second compound 0.1 µM, first compound 0.3 µM",95.2%
same,"viability, T/C","second compound 0.1 µM, first compound 0.949 µM",80%
same,"viability, T/C","second compound 0.1 µM, first compound 3 µM",81.3%
same,"viability, T/C","second compound 0.316 µM, first compound 0.00949 µM",87.2%
same,"viability, T/C","second compound 0.316 µM, first compound 0.03 µM",93.7%
same,"viability, T/C","second compound 0.316 µM, first compound 0.0949 µM",87.6%
same,"viability, T/C","second compound 0.316 µM, first compound 0.3 µM",92.7%
same,"viability, T/C","second compound 0.316 µM, first compound 0.949 µM",87.1%
same,"viability, T/C","second compound 0.316 µM, first compound 3 µM",74.6%
same,"viability, T/C","second compound 1 µM, first compound 0.00949 µM",96.6%
same,"viability, T/C","second compound 1 µM, first compound 0.03 µM",98.1%
same,"viability, T/C","second compound 1 µM, first compound 0.0949 µM",90.3%
same,"viability, T/C","second compound 1 µM, first compound 0.3 µM",86.1%
same,"viability, T/C","second compound 1 µM, first compound 0.949 µM",90.1%
same,"viability, T/C","second compound 1 µM, first compound 3 µM",71.5%
same,"viability, T/C","second compound 3.16 µM, first compound 0.00949 µM",92.4%
same,"viability, T/C","second compound 3.16 µM, first compound 0.03 µM",87.7%
same,"viability, T/C","second compound 3.16 µM, first compound 0.0949 µM",94.3%
same,"viability, T/C","second compound 3.16 µM, first compound 0.3 µM",89%
same,"viability, T/C","second compound 3.16 µM, first compound 0.949 µM",79.7%
same,"viability, T/C","second compound 3.16 µM, first compound 3 µM",76.8%
same,"viability, T/C","second compound 10 µM, first compound 0.00949 µM",75.2%
same,"viability, T/C","second compound 10 µM, first compound 0.03 µM",81.3%
same,"viability, T/C","second compound 10 µM, first compound 0.0949 µM",80.8%
same,"viability, T/C","second compound 10 µM, first compound 0.3 µM",73.8%
same,"viability, T/C","second compound 10 µM, first compound 0.949 µM",80.5%
same,"viability, T/C","second compound 10 µM, first compound 3 µM",53.1%
